The assay deals with RSV A2 strain. Briefly: In vitro CPE (CytoPathic Effect) inhibition effect evaluation test, RSV type A. The assay is classed as cell-based. The method, boiled down: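 HEp-2 cells (2.4×10^5 cells/mL, 2% FBS E-MEM) were infected with RSV alongside 3-fold compound dilutions and incubated at 37 °C, 4 days for A2 and 5 days for B Wash/18537. Viable cells quantified by CellTiter-Glo 2.0 luminescence; EC50 by nonlinear regression as 50% CPE inhibition.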

The mark [1] stands for this setting: human respiratory syncytial virus, inhibitory effect against RSV type A (RSV A2 strain), HEp-2 cells, CPE inhibition, read-out: EC50.
Setting [2] is: inhibitory effect against RSV type A (RSV A2 strain), HEp-2 cells, CPE inhibition, read-out: EC50.

The structures appear in SMILES notation. pEC50: −log10 of the molar value. Read-outs that look alike come from different tables or passages of the source.

Consider `O=C(NC1(C(=O)O)C2CC3CC(C2)CC1C3)c1cnc(-c2cn(C3CCC(F)(F)CC3)c3cc(OC4CCN(C(=O)C5CC5)CC4)ccc23)nc1C(F)(F)F` (stereo not drawn) [Compound I-258], for which the pEC50 under setting [1] was > 8.00.
With `Cc1ccc2c(c1)C1(CCNCC1)CN2c1ncc(C(=O)NC2(C(N)=O)C3CC4CC(C3)CC2C4)c(C(F)(F)F)n1` (stereo not drawn) [Compound I-172], the pEC50 under setting [1] is 5.30 to 7.00.
Regarding `COCCN1CCC(Oc2ccc3c(-c4ncc(C(=O)NC5(C(=O)O)C6CC7CC(C6)CC5C7)c(C(F)(F)F)n4)cn(C4CCC(F)(F)CC4)c3c2)CC1` (stereo not drawn) [Compound I-253], the pEC50 under setting [1] was > 8.00.
Take `O=C(NC1(C(=O)O)C2CC3CC(C2)CC1C3)c1cnc(-c2cn(C3CCC(F)(F)CC3)c3cc(C(=O)N4CCC(N5CC(F)(F)C5)CC4)ccc23)nc1C(F)(F)F` (stereo not drawn) [Compound I-416]: the pEC50 under setting [1] was > 8.00.
For `O=C(NC1(C(=O)O)C2CC3CC(C2)CC1C3)c1cnc(N2CCc3cc(CN4CCN(c5ncccn5)CC4)ccc32)nc1C(F)(F)F` (stereo not drawn) [Compound I-213], under setting [1], the pEC50 was > 8.00.
For `O=C(NC1(C(=O)O)C2CC3CC(C2)CC1C3)c1ccc(-c2cn([C@H]3CC[C@@H](C(F)(F)F)CC3)c3cc(OC4CCN(c5ncccn5)CC4)ccc23)nc1C(F)(F)F` (stereo partly drawn) [Compound I-285], the pEC50 under setting [1] was > 8.00.
The same measure, in the same setting: for `O=C(NC1(C(=O)O)C2CC3CC(C2)CC1C3)c1cnc(N2CC3(CCOCC3)c3cc(O)ccc32)nc1C(F)(F)F` (stereo not drawn) [Compound I-201] the value was 7.00 to 8.00.
On to `O=C(NC1(C(=O)O)C2CC3CC(C2)CC1C3)c1cnc(N2CC3(CCOCC3)c3nc(OCCC4CCOCC4)ccc32)nc1C(F)(F)F` (stereo not drawn) [Compound I-105], for which the pEC50 under setting [2] was > 8.00.
For `CN(C)S(=O)(=O)NC(=O)C1(NC(=O)c2cnc(N3CCc4cc(OCCC5CCOCC5)ccc43)nc2C(F)(F)F)CCCCC1` [Compound I-35], under setting [1], the pEC50 was 7.00 to 8.00.
For the compound `O=C(NC1(C(=O)O)CCCCC1)c1cnc(N2CC3(CCOCC3)c3cc(OCCN4CCOCC4)ccc32)nc1C(F)(F)F` [Compound I-85], under setting [1], the pEC50 was 7.00 to 8.00.
For the compound `O=C(NC1(C(=O)O)C2CC3CC(C2)CC1C3)c1cnc(N2CC3(CCOCC3)c3cc(Cc4ccccc4)ccc32)nc1C(F)(F)F` (stereo not drawn) [Compound I-293], the pEC50 under setting [2] is 7.00 to 8.00.
For the compound `O=C(NC1(C(=O)O)CCCCC1)c1cnc(N2CCc3cc(OCC4CN(c5ncccn5)CCO4)ccc32)nc1C(F)(F)F` (racemic) [Compound I-66], the pEC50 under setting [1] was 7.00 to 8.00.
For the compound `O=C(NC1(C(=O)O)CCCCC1)c1cnc(N2CCc3cc(C4=CCCN(Cc5ccccc5)C4)ccc32)nc1C(F)(F)F` [Compound I-70], the pEC50 under setting [1] was 7.00 to 8.00.
In the case of `O=C(NC1(C(=O)O)CCCCC1)c1cnc(N2CC3(CCOCC3)c3nc(OC4CCN(c5ncccn5)CC4)ccc32)nc1C(F)(F)F` [Compound I-108], under setting [1], the pEC50 was > 8.00.
Still for that read-out and setting: the figure for `COCCCCOc1ccc2c(c1)CCN2c1ncc(C(=O)NC2(C(=O)O)CC3CCC2C3)c(C(F)(F)F)n1` (stereo not drawn) [Compound I-11] is > 8.00.
In the case of `O=C(NC1(C(=O)O)C2CC3CC(C2)CC1C3)c1cnc(N2CC3(CCOCC3)c3cc(C4=CCCC4)ccc32)nc1C(F)(F)F` (stereo not drawn) [Compound I-128], the negative logarithm of the EC50 (pEC50) under setting [1] is > 8.00.
With `COC12CC3CC(C1)C(NC(=O)c1cnc(N4CC5(CCOCC5)c5cc(OC6CCN(c7ncccn7)CC6)ccc54)nc1C(F)(F)F)(C(=O)O)C(C3)C2` (single isomer, unassigned) [Compound I-211], the pEC50 under setting [2] is > 8.00.
For the compound `O=C(NC1(C(=O)O)C2CC3CC(C2)CC1C3)c1cnc(-c2cn(C3CCC(F)(F)CC3)c3cc(OC4CN(CC(F)(F)F)C4)ccc23)nc1C(F)(F)F` (stereo not drawn) [Compound I-388], the pEC50 under setting [1] is > 8.00.
Take `O=C(NC1(C(=O)O)C2CC3CC(C2)CC1C3)c1ccc(-c2cn(C3CCC3)c3cc(OC4CCN(c5ncccn5)CC4)ccc23)nc1C(F)(F)F` (stereo not drawn) [Compound I-154]: the negative-log EC50 (pEC50) under setting [1] was > 8.00.
On to `COc1cccc(-n2cc(-c3ccc(C(=O)NC4(C(=O)O)C5CC6CC(C5)CC4C6)c(C(F)(F)F)n3)c3ccc(OC4CCN(c5ncccn5)CC4)cc32)n1` (stereo not drawn) [Compound I-296], for which the pEC50 under setting [2] was > 8.00.
As for `Cn1cc(-c2ncc(C(=O)NC3(C(=O)O)CCCCC3)c(C(F)(F)F)n2)c2ccc(OCCC3CCOCC3)cc21` [Compound I-117], the pEC50 under setting [1] was 7.00 to 8.00.
With `CC(C)C(=O)N1CCC(Oc2ccc3c(c2)CCN3c2ncc(C(=O)NC3(C(=O)O)CCCCC3)c(C(F)(F)F)n2)CC1` [Compound I-65], the pEC50 under setting [1] was 7.00 to 8.00.
As to `CC(=O)OCCCCOc1ccc2c(c1)CCN2c1ncc(C(=O)NC2(C(=O)O)CCCCC2)c(C(F)(F)F)n1` [Compound I-6], the pEC50 under setting [1] was 7.00 to 8.00.
As for `CC1CC(Oc2ccc3c(-c4ncc(C(=O)NC5(C(=O)O)C6CC7CC(C6)CC5C7)c(C(F)(F)F)n4)cn(C4CCC(F)(F)CC4)c3c2)CCN1CC(F)(F)F` (stereo not drawn) [Compound I-414], the pEC50 under setting [1] is > 8.00.
Same read-out and setting: for `O=C(O)/C=C/C1(NC(=O)c2cnc(N3CC4(CCOCC4)c4cc(OC5CCN(c6ncccn6)CC5)ccc43)nc2C(F)(F)F)C2CC3CC(C2)CC1C3` (stereo not drawn) [Compound I-208] the value was > 8.00.
As for `CC(=O)N1CCC2(C1)CN(c1ncc(C(=O)NC3(C(=O)O)C4CC5CC(C4)CC3C5)c(C(F)(F)F)n1)c1ccc(OC3CCN(c4ncccn4)CC3)cc12` (racemic) [Compound I-362], the negative logarithm of the EC50 (pEC50) under setting [2] was > 8.00.
As for `Cc1nc(COc2ccc3c(c2)CCN3c2ncc(C(=O)NC3(C(=O)O)CCCCC3)c(C(F)(F)F)n2)cs1` [Compound I-28], under setting [1], the negative-log EC50 (pEC50) is 7.00 to 8.00.
`O=C(NC1(C(=O)O)C2CC3CC(C2)CC1C3)c1cnc(N2CC3(CCCC3)c3cc(O[C@H]4CC[C@H](N5CC(F)(F)C5)CC4)ccc32)nc1C(F)(F)F` (stereo partly drawn) [Compound I-462]: the pEC50 under setting [1] is > 8.00.
Consider `COc1ccc2c(c1)CCN2c1ccc(C(=O)NC2(C(=O)O)C3CC4CC(C3)CC2C4)c(C(F)(F)F)c1` (stereo not drawn) [Compound I-124], for which, under setting [1], the pEC50 was 7.00 to 8.00.
Still for that read-out and setting: the figure for `O=C(NC1(C(=O)O)C2CC3CC(C2)CC1C3)c1ccc(-c2cn([C@H]3CC[C@@H](OCc4ccccc4)CC3)c3cc(OC4CCN(c5ncccn5)CC4)ccc23)nc1C(F)(F)F` (stereo partly drawn) [Compound I-188] is > 8.00.
With `COC1CCC(n2cc(-c3ncc(C(=O)NC4(C(=O)O)C5CC6CC(C5)CC4C6)c(C(F)(F)F)n3)c3ccc(OC4CCN(c5ncc(F)cn5)CC4)cc32)CC1` (single isomer, unassigned) [Compound I-424], the pEC50 under setting [2] is > 8.00.
Still for that read-out and setting: for `O=C(NC1(C(=O)O)C2CC3CC(C2)CC1C3)c1cnc(N2CC3(CCOCC3)c3cc(C(F)(F)F)ccc32)nc1C(F)(F)F` (stereo not drawn) [Compound I-307] the value was > 8.00.
For `O=C(NC1(C(=O)O)C2CC3CC(C2)CC1C3)c1cnc(N2CC3(CCOCC3)c3c2cc(F)c(F)c3F)nc1C(F)(F)F` (stereo not drawn) [Compound I-287], the negative-log EC50 (pEC50) under setting [1] is > 8.00.
Take `O=C(NC1(C(=O)O)C2CC3CC(C2)CC1C3)c1cnc(N2CC3(CCCCC3)c3cc(OC4CCN(c5ncccn5)CC4)c(F)cc32)nc1C(F)(F)F` (stereo not drawn) [Compound I-394]: under setting [1], the pEC50 was > 8.00.
Take `O=C(NC1(C(=O)O)C2CC3CC(C2)CC1C3)c1cnc(-c2cn(-c3ncccn3)c3cc(OC4CCN(c5ncc(F)cn5)CC4)ccc23)nc1C(F)(F)F` (stereo not drawn) [Compound I-468]: the pEC50 under setting [1] is > 8.00.
As to `O=C(NC1(C(=O)O)C2CC3CC(C2)CC1C3)c1cnc(N2CCc3cc(OC4CCN(C5COC5)CC4)ccc32)nc1C(F)(F)F` (stereo not drawn) [Compound I-220], the pEC50 under setting [1] is > 8.00.
For the compound `O=C(NC1(C(=O)O)C2CC3CC(C2)CC1C3)c1cnc(-c2cn(C3CCC(F)(F)CC3)c3ccc(OC4CCCN(C5COC5)C4)cc23)nc1C(F)(F)F` (racemic) [Compound I-233], the pEC50 under setting [1] is 7.00 to 8.00.
`CCNC(=O)N1CCC2(CC1)CN(c1ncc(C(=O)NC3(C(=O)O)C4CC5CC(C4)CC3C5)c(C(F)(F)F)n1)c1ccc(C)cc12` (stereo not drawn) [Compound I-138]: the negative logarithm of the EC50 (pEC50) under setting [1] is > 8.00.
Same read-out and setting: the figure for `O=C(NC1(C(=O)O)C2CC3CC(C2)CC1C3)c1ccc(-c2cn(-c3ccncn3)c3cc(OC4CCN(c5ncccn5)CC4)ccc23)nc1C(F)(F)F` (stereo not drawn) [Compound I-197] is > 8.00.
For the compound `O=C(NC1(C(=O)O)C2CC3CC(C2)CC1C3)c1cnc(-c2cn(C3CCC(F)(F)CC3)c3cc(OC4CCN(c5ncccn5)CC4F)ccc23)nc1C(F)(F)F` (stereo not drawn) [Compound I-371], the pEC50 under setting [1] was > 8.00.
As to `O=C(NC1(C(=O)O)C2CC3CC(C2)CC1C3)c1cnc(N2CC3(CC4CCC(C3)O4)c3cc(OC4CCN(c5ncccn5)CC4)ccc32)nc1C(F)(F)F` (single isomer, unassigned) [Compound I-300], the pEC50 under setting [2] was > 8.00.
Take `COC1CC(n2cc(-c3ncc(C(=O)NC4(C(=O)O)C5CC6CC(C5)CC4C6)c(C(F)(F)F)n3)c3ccc(OC4CCN(c5ncc(F)cn5)CC4)cc32)C1` (stereo not drawn) [Compound I-378]: the pEC50 under setting [1] was > 8.00.
Regarding `O=C(NC1(C(=O)O)CCCCC1)c1cnc(N2CCc3cc(OC4CCN(c5cccnc5)CC4)ccc32)nc1C(F)(F)F` [Compound I-51], the negative-log EC50 (pEC50) under setting [1] was 7.00 to 8.00.
With `O=C(NC1(C(=O)O)C2CC3CC(C2)CC1C3)c1cnc(-c2cn(C3CCC(F)(F)CC3)c3cc(OC4CCC(C(F)(F)F)CC4)ccc23)nc1C(F)(F)F` (stereo not drawn) [Compound I-428], the negative logarithm of the EC50 (pEC50) under setting [1] is > 8.00.
For `O=C(NC1(C(=O)O)C2CC3CC(C2)CC1C3)c1cnc(-c2cn(C3CCC(F)(F)CC3)c3cc(OC4CCN(CC(F)(F)C(F)(F)F)CC4)ccc23)nc1C(F)(F)F` (stereo not drawn) [Compound I-408], the pEC50 under setting [1] is > 8.00.
For `O=C(NC1(C(=O)O)CCCCC1)c1cnc(N2CCc3cc(OCC4CN(CC(F)(F)F)CCO4)ccc32)nc1C(F)(F)F` (racemic) [Compound I-58], under setting [1], the pEC50 is 7.00 to 8.00.
Turning to `O=C(NC1(C(=O)O)C2CC3CC(C2)CC1C3)c1cnc(N2CC3(CCOCC3)c3cc(O[C@@H]4C[C@H]5CC[C@@H](C4)N5)ccc32)nc1C(F)(F)F` (stereo partly drawn) [Compound I-212], the pEC50 (human respiratory syncytial virus, HEp-2) was 5.30 to 7.00.
On to `O=C(NC1(C(=O)O)C2CC3CC(C2)CC1C3)c1cnc(N2CC3(CCCCC3)c3cc(O[C@H]4CC[C@@H](ON=C5CCC(F)(F)CC5)CC4)ccc32)nc1C(F)(F)F` (stereo partly drawn) [Compound I-457], for which the pEC50 under setting [1] is 7.00 to 8.00.

The pEC50 is the negative decadic logarithm of the EC50, by convention in mol/L.
